Measured values from ChEMBL document CHEMBL4507319 (2021).

Legend:
[1] = molecular target: Bone morphogenetic protein receptor type-1B (Homo sapiens) (UniProt O00238); conditions: Compound concentration 1000.0 nM
[2] = molecular target: Ephrin type-A receptor 5 (Homo sapiens) (UniProt P54756); conditions: Compound concentration 1000.0 nM
[3] = molecular target: Fibroblast growth factor receptor 3 (Homo sapiens) (UniProt P22607); conditions: Compound concentration 1000.0 nM
[4] = molecular target: T1, Serine/threonine-protein kinase Nek11 (Homo sapiens) (UniProt Q8NG66); conditions: Compound concentration 1000.0 nM
T1 sequence (whole entry): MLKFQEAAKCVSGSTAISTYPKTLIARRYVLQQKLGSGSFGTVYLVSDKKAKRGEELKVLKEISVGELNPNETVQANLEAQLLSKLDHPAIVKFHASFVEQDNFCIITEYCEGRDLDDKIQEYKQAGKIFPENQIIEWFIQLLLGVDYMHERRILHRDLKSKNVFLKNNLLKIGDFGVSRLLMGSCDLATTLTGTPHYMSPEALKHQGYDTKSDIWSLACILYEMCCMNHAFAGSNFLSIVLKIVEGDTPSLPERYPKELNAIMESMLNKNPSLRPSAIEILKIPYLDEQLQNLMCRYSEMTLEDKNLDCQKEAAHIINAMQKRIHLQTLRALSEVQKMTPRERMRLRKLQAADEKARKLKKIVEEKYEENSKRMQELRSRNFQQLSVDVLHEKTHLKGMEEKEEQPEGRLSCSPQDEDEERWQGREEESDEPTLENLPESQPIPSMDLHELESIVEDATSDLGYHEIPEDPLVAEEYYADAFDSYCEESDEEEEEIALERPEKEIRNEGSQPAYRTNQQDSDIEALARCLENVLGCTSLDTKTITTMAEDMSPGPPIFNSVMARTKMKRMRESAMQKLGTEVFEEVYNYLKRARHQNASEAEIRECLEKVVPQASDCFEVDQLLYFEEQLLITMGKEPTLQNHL

[5] = molecular target: Non-receptor tyrosine-protein kinase TNK1 (Homo sapiens) (UniProt Q13470); conditions: Compound concentration 1000.0 nM
[6] = molecular target: Sigma intracellular receptor 2 (Homo sapiens, UniProt Q5BJF2); conditions: Compound concentration 10.0 uM
[7] = molecular target: T2, Ephrin type-A receptor 1 (Homo sapiens) (UniProt P21709); conditions: Compound concentration 1000.0 nM
T2 sequence (whole entry): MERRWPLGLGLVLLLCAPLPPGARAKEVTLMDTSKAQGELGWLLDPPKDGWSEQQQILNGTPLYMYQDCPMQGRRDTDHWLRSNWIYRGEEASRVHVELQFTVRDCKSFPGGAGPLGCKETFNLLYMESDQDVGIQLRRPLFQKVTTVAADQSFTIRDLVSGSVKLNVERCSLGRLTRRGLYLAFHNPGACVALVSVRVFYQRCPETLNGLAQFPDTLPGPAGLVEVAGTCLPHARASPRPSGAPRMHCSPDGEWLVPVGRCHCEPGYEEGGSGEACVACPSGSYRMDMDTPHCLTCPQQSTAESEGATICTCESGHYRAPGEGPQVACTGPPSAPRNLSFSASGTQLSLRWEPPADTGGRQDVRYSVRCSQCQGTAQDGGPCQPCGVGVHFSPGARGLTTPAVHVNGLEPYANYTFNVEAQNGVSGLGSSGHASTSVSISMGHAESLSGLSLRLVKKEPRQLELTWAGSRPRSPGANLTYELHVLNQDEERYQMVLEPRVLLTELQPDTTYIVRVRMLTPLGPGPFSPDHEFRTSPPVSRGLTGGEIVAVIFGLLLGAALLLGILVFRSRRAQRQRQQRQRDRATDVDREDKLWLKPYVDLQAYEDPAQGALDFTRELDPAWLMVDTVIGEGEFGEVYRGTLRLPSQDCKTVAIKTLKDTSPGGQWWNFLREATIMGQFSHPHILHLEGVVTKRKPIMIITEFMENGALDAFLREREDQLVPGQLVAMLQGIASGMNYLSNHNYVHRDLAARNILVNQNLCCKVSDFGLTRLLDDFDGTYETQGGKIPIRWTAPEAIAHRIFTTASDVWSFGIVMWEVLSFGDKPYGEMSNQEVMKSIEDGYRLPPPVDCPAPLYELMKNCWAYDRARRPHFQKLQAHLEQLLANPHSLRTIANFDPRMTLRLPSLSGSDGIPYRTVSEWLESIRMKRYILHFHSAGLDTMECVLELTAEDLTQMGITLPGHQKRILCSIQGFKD

[8] = molecular target: Non-receptor tyrosine-protein kinase TYK2 (Homo sapiens) (UniProt P29597); conditions: Compound concentration 1000.0 nM
[9] = molecular target: Cyclin-dependent kinase 11B (Homo sapiens) (UniProt P21127); conditions: Compound concentration 1000.0 nM
[10] = molecular target: T3, Discoidin domain-containing receptor 2 (Homo sapiens) (UniProt Q16832); conditions: Compound concentration 1000.0 nM
T3 sequence (whole entry): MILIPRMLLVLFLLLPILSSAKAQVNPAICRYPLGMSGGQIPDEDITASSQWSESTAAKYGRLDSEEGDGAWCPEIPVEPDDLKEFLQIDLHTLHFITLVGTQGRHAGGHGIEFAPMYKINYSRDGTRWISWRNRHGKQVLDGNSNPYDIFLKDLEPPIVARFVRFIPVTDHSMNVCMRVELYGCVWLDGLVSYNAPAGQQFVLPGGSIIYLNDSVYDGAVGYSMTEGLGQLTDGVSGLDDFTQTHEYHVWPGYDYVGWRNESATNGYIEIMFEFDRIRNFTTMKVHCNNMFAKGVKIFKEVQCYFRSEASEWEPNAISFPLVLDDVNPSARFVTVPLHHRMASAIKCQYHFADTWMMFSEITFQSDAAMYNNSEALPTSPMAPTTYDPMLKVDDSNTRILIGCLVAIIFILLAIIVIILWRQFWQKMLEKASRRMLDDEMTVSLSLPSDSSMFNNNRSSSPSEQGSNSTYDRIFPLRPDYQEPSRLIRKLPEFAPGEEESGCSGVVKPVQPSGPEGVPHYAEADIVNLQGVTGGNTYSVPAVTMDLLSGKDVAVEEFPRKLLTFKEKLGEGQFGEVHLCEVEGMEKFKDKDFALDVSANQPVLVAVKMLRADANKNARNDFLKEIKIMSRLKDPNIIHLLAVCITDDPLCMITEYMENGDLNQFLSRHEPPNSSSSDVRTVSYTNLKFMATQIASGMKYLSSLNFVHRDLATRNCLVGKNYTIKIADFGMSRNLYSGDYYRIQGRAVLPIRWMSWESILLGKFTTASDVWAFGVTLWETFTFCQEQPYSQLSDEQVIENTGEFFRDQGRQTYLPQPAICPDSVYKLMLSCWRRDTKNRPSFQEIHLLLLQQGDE

Chain of Bone morphogenetic protein receptor type-1B (Homo sapiens) (O00238 whole entry): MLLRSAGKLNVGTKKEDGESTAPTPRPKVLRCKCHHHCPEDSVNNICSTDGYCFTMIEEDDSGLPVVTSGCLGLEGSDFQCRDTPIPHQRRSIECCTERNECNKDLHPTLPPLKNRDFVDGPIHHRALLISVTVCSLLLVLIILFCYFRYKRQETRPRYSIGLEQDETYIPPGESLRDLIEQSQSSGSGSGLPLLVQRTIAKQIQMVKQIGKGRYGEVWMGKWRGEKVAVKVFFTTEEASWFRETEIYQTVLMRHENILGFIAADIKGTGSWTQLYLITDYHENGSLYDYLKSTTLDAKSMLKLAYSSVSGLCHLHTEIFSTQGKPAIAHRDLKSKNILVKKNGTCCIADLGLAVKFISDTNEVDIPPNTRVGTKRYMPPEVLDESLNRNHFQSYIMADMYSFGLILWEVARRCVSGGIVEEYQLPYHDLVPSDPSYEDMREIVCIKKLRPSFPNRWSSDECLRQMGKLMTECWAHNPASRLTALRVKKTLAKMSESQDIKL
Chain of Ephrin type-A receptor 5 (Homo sapiens) (P54756 whole entry): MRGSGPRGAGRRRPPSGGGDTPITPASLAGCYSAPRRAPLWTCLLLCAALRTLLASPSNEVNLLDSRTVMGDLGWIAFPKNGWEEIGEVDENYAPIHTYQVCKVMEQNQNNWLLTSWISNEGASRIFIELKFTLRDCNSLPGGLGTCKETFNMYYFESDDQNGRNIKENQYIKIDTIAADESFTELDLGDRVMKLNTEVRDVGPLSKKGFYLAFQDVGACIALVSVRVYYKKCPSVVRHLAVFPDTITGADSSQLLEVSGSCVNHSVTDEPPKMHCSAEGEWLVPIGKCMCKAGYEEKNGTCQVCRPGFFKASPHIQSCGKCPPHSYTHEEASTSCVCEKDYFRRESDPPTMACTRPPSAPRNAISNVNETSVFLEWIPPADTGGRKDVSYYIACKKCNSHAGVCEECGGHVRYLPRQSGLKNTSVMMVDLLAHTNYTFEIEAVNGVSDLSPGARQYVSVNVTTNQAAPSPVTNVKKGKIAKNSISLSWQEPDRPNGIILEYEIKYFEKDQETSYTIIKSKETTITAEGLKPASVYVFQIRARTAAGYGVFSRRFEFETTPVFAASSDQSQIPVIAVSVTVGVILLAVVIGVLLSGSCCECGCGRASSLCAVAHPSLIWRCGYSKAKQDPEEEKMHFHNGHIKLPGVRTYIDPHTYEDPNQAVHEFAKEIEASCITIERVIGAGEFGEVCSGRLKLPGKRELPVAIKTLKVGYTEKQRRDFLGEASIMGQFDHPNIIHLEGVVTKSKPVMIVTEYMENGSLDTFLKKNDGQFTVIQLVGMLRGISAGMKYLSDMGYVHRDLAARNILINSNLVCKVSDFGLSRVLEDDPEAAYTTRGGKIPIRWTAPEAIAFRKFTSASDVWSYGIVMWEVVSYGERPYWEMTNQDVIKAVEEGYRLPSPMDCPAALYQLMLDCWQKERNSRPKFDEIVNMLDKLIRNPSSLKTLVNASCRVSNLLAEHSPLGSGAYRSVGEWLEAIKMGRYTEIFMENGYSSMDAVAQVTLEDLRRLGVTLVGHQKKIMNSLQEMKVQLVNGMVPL
Chain of Fibroblast growth factor receptor 3 (Homo sapiens) (P22607 23-806 limits assumed): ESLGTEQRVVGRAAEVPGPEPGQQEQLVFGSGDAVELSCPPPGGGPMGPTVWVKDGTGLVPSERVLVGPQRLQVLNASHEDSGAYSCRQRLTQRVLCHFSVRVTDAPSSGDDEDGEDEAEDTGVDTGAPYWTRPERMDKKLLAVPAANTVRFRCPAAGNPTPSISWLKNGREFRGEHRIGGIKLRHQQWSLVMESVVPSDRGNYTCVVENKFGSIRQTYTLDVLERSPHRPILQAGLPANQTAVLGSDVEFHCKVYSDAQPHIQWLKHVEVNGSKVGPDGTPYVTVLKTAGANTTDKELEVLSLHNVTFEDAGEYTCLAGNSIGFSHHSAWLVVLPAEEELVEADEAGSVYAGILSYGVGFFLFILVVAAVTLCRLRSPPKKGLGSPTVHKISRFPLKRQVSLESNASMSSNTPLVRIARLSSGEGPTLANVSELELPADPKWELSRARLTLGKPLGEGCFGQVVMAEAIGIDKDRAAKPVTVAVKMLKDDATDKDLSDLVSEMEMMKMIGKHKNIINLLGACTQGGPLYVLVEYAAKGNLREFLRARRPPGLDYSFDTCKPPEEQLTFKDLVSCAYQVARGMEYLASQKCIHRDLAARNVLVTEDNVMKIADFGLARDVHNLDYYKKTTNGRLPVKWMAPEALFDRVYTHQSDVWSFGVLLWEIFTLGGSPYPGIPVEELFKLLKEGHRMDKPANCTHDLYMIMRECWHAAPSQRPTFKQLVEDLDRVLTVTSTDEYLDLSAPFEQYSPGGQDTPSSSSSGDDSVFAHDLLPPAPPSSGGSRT
Chain of Non-receptor tyrosine-protein kinase TNK1 (Homo sapiens) (Q13470 whole entry): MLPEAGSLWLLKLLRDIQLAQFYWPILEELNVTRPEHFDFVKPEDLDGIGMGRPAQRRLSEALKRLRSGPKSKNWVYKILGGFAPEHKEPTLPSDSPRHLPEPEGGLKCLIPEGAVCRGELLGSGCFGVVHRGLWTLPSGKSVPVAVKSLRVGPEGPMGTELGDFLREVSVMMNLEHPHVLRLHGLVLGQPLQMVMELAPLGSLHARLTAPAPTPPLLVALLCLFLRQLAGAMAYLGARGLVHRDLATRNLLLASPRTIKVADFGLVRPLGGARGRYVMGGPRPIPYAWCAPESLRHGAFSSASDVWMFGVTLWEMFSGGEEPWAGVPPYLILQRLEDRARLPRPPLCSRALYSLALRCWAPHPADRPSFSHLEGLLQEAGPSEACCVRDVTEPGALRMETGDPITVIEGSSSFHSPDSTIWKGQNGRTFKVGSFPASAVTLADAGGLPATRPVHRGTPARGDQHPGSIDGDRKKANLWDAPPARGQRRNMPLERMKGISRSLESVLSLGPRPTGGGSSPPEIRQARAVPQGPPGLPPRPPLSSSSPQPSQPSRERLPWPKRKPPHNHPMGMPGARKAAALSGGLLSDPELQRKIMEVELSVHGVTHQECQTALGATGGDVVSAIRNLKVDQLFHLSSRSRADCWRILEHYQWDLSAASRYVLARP
Chain of Cyclin-dependent kinase 11B (Homo sapiens) (P21127 whole entry, the tested form may be a part): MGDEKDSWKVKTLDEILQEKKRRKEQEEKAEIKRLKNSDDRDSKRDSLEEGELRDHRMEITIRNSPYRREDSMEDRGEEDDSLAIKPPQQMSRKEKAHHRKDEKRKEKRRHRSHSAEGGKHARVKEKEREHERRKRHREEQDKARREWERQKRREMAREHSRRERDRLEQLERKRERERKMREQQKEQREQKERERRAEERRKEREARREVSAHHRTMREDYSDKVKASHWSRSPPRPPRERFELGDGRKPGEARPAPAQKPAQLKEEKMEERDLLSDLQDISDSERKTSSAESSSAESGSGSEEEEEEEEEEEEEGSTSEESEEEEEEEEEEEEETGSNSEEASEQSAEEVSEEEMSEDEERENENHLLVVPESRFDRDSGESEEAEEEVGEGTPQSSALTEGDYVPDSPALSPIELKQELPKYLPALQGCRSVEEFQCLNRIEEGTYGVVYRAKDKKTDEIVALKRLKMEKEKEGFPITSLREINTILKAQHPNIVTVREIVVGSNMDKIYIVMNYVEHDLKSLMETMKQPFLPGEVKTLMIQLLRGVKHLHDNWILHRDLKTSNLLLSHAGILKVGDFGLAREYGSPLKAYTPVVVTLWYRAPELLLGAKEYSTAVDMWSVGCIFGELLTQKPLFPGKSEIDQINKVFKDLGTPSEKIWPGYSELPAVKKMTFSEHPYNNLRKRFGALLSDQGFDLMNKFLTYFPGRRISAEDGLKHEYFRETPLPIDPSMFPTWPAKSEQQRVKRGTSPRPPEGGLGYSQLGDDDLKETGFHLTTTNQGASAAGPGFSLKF
Chain of Non-receptor tyrosine-protein kinase TYK2 (Homo sapiens) (P29597 whole entry): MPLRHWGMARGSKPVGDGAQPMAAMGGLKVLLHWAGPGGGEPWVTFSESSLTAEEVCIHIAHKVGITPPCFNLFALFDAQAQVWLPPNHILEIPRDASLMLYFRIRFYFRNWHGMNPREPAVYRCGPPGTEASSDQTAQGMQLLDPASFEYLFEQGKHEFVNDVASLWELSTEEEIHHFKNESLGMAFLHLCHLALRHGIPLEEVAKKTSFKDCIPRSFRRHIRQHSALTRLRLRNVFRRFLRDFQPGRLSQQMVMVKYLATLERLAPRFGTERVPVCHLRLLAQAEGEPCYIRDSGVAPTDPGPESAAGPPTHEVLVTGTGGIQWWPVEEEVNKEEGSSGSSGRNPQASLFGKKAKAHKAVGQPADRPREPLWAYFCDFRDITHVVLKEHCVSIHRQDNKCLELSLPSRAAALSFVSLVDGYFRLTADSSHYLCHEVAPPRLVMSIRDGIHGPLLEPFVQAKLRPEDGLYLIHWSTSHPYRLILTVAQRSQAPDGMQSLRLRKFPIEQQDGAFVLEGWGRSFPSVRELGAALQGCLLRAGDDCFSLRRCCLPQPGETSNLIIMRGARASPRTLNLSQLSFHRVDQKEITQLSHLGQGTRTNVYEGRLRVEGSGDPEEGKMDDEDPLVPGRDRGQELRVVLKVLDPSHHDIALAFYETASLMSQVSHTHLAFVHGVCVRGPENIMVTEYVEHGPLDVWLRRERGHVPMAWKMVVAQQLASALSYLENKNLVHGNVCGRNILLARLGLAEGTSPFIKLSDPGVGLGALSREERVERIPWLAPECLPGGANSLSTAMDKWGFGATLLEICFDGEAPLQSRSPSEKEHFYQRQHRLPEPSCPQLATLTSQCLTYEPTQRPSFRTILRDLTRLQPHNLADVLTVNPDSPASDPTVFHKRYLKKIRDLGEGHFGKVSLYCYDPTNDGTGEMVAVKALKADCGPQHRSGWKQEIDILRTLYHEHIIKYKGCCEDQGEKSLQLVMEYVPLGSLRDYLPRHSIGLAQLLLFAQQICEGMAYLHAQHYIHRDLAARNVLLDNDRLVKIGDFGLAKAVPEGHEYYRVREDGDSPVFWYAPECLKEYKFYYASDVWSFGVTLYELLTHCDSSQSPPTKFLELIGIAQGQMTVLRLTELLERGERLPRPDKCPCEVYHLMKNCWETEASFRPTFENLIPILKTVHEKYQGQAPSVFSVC

Compound | residual activity [1] [%] | residual activity [2] [%] | residual activity [3] [%] | residual activity [4] [%] | residual activity [5] [%] | inhibition [6] [%] | residual activity [7] [%] | residual activity [8] [%] | residual activity [9] [%] | residual activity [10] [%]
CC1=C(C#N)C(c2ccc3c(c2)c(NC(=O)c2ccccc2C)nn3C)C(C#N)=C(C)N1 [BAY-974] | 91 | 77 | 94 | 96 | 76 | 51.2 | 88 | 82 | 100 | 86
CCc1ccccc1C(=O)Nc1n[nH]c2c(C)c(F)c(C3C(C#N)=C(C)N(C)C(C)=C3C#N)cc12 [BAY-3827] | 96 | 87 | 93 | 100 | 100 | 78.3 | 60 | 100 | 100 | 100
